Read-outs that look alike come from different tables or passages of the source.
Tests used:
KAT6A = target: T1, KAT6A (Homo sapiens, UniProt Q92794); test: Inhibition of human KAT enzymes, radioisotope method: KAT6A; type: biochemical; conditions: KAT6A (488-778)
T1 construct: purchased ACTIVE MOTIF 81223
From the text: (§1) Test Example 2: Selective Inhibitory Effects of Test Compounds on Human KAT6 Enzymes (Radioisotope Method)
(§2) • 1. KAT6A (ACTIVE MOTIF, Cat. No. 81223) • 2. KAT5 (BPS, Cat. No. 79422) • 3. KAT7 (ACTIVE MOTIF, Cat. No. 31889) • 4. KAT6B (ACTIVE MOTIF, Cat. No. 81224) • 5. Acetyl coenzyme A, [Acetyl-^3H, 250 μCi (9.25 MBq](PEIRKIN4 ELMER, Cat. No. NET290250UC) • 6. Acetyl coenzyme A (CAYMVAN, Cat. No. 16160) • 7. 384-well Flashplate (Perkin Elmer, Cat. No. SMP410A001PK) • 8. Garcinol (MCE, Cat. No. HY-107569) • 9. Automatic microplate pipetting system (Precision, PRC384U, BioTek) • 10. Ultrasonic nanoliter liquid handling system (Echo 650 Liquid Handler, Echo 650, Labcyte) • 11. Centrifuge (Avanti J-15R, Beckman Coulter) • 12. Liquid scintillation counter (Microplate Counter, Microbeta2, Perkin Elmer)
(§3) • 1. For KAT6A and KAT7, a 1× assay buffer was prepared as follows: 10 mM Tris-HCl pH 8.0, 0.01% Tween-20, and 1 mM DTT; for KAT6B and KAT5, a 1× assay buffer was prepared as follows: 50 mM Tris-HCl pH 8.0, 0.05% Tween-20, and 1 mM DTT. • 2. Compound preparation: For KAT6A, KAT6B, and KAT7, the final concentration of the compounds started at 1 μM, followed by a 5-fold serial dilution across a total of 7 concentration gradients; for KAT5, the final concentration of the compounds started at 10 μM, followed by a 5-fold serial dilution across a total of 7 concentration gradients. • 3. Substrate reaction solution preparation: The mixed substrates of H4 peptide and [3H]acetyl coenzyme A at final concentrations were prepared using the respective 1× assay buffers, as shown in Table 4.
(§4) • 1. The enzyme solution was transferred to 384-well reaction plates at 10 μL/well. For each negative control well, 10 μL of the 1× assay buffer was transferred. The plates were then centrifuged at 1000 RPM for 1 min and incubated at room temperature for 15 min. • 2. The substrate reaction solution was added at 10 μL/well, and the plates were centrifuged at 1000 RPM for 1 min to start the reaction. • 3. The samples for KAT6A, KAT6B, KAT7, KAT8, and KAT5 were then incubated at room temperature for 60 min, 120 min, 45 min, 60 min, and 120 min, respectively. • 4. Stop solution preparation: A stop solution was prepared by diluting 50 µM cold Ac-CoA in 1× buffer. • 5. The stop solution was added at 10 μL/well, and the plates were centrifuged at […] for 1 min to stop the reaction. • 6. The mixtures in the reaction plates were transferred at 25 μL/well to new plates (Streptavidin FlashPlate HTS PLUS, High Capacity, 384-well). • 7. The plates were incubated at room temperature for at least 60 min and then • 8. read using MicroBeta2.
(§5) Raw data were obtained in EXCEL, and the inhibition rates were calculated:
(§6) [formula] [formula] • Max signal: reaction signal from enzyme and substrate; • Sample signal: signal from sample; • Min signal: signal from substrate only (negative control).
(§7) The inhibition rate data were imported into XLFit Excel, and IC50 values were obtained using formula (2):
(§8) [formula] [formula] • Top: value of the top plateau of the fitted regression curve; • Bottom: value of the bottom plateau of the fitted regression curve; • HillSlope: slope of the fitted regression curve.
(§9) The IC50 value was substituted into formula (3) to obtain the enzymatic activity inhibition constant Ki:
(§10) [formula] • [S]: substrate concentration; Km: Michaelis constant.

KAT6B = target: T2, KAT6B (Homo sapiens, UniProt Q8WYB5); test: Inhibition of human KAT enzymes, radioisotope method: KAT6B; type: biochemical; conditions: KAT6B (718-1008)
T2 construct: purchased ACTIVE MOTIF 81224
From the text: as §1, §2, §3, §4, §5, §6, §7, §8, §9, §10

KAT5 = target: T3, KAT5 (Homo sapiens, UniProt Q92993); test: Inhibition of human KAT enzymes, radioisotope method: KAT5; type: biochemical; conditions: for Ki: KAT5 (full-length), radioisotope method; for KAT5/ KAT6A / KAT5/ KAT6B: selectivity, ratio of Ki
T3 construct: purchased BPS 79422
From the text: as §1, §2, §3, §4, §5, §6, §7, §8, §9, §10

KAT7 = target: T4, KAT7 (Homo sapiens, UniProt O95251); test: Inhibition of human KAT enzymes, radioisotope method: KAT7; type: biochemical; conditions: for Ki: KAT7 (full-length), radioisotope method; for KAT7/ KAT6A / KAT7/ KAT6B: selectivity, ratio of Ki
T4 construct: purchased ACTIVE MOTIF 31889
From the text: as §1, §2, §3, §4, §5, §6, §7, §8, §9, §10

[1] = Pharmacokinetics in SD (Sprague Dawley) rats; type: in vivo; conditions: rat, plasma, female SD rats; for clearance: read-out: CL (clearance rate); for half-life: read-out: T1/2 (half-life) (converted); for Vd: read-out: Vdss (apparent volume of distribution); for bioavailability: read-out: F (bioavailability)
Protocol: Test Example 3: Determination of Pharmacokinetic Data of Compounds in SD (Sprague Dawley) Rats
The pharmacokinetic characteristics of some of the compounds of the present disclosure were evaluated by a pharmacokinetic experiment in SD rats.
Female SD rats aged 6-8 weeks from Shanghai Jihui Laboratory Animal Care Co., Ltd. were selected. The test animals were fasted overnight before administration, and feeding was resumed 4 h after administration. The compounds were dissolved in 5% DMSO+5% Tween 80+90% normal saline. For a single intravenous administration, the administration dose was 1 mg/kg, and the administration volume was 2 mL/kg. For a single intragastric administration, the administration dose was 2 mg/kg, and the administration volume was 10 mL/kg. Blood was collected at 0.083 h (for intravenous administration only), 0.25 h, 0.5 h, 1 h, 2 h, 4 h, 8 h, and 24 h after administration. At each indicated time point, about 150 μL of blood sample was collected from each rat via the vein and placed into an EDTA-K2 tube. Each sample was centrifuged (2000 g, 4° C., 5 min) within 15 min after sample collection to obtain plasma, which was then stored at −70° C. until analysis. The concentration of the corresponding test compound in the SD rat plasma was determined using UPLC-MS/MS.

T3 sequence (Q92993 whole entry): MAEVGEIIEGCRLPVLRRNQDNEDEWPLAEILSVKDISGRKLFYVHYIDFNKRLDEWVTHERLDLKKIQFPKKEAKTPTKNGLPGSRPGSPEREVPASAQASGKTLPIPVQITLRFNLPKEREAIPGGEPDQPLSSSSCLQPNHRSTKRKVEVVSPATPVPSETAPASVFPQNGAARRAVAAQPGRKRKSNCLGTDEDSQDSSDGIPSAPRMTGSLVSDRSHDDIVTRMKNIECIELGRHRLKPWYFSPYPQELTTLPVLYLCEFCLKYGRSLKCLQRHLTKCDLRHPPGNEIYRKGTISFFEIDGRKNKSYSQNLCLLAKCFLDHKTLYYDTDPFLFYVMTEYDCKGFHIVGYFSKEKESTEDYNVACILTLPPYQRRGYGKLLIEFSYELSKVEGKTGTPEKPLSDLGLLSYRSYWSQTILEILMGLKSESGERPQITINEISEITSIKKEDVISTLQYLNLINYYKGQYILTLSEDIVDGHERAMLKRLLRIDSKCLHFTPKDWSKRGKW
T2 sequence (Q8WYB5 whole entry): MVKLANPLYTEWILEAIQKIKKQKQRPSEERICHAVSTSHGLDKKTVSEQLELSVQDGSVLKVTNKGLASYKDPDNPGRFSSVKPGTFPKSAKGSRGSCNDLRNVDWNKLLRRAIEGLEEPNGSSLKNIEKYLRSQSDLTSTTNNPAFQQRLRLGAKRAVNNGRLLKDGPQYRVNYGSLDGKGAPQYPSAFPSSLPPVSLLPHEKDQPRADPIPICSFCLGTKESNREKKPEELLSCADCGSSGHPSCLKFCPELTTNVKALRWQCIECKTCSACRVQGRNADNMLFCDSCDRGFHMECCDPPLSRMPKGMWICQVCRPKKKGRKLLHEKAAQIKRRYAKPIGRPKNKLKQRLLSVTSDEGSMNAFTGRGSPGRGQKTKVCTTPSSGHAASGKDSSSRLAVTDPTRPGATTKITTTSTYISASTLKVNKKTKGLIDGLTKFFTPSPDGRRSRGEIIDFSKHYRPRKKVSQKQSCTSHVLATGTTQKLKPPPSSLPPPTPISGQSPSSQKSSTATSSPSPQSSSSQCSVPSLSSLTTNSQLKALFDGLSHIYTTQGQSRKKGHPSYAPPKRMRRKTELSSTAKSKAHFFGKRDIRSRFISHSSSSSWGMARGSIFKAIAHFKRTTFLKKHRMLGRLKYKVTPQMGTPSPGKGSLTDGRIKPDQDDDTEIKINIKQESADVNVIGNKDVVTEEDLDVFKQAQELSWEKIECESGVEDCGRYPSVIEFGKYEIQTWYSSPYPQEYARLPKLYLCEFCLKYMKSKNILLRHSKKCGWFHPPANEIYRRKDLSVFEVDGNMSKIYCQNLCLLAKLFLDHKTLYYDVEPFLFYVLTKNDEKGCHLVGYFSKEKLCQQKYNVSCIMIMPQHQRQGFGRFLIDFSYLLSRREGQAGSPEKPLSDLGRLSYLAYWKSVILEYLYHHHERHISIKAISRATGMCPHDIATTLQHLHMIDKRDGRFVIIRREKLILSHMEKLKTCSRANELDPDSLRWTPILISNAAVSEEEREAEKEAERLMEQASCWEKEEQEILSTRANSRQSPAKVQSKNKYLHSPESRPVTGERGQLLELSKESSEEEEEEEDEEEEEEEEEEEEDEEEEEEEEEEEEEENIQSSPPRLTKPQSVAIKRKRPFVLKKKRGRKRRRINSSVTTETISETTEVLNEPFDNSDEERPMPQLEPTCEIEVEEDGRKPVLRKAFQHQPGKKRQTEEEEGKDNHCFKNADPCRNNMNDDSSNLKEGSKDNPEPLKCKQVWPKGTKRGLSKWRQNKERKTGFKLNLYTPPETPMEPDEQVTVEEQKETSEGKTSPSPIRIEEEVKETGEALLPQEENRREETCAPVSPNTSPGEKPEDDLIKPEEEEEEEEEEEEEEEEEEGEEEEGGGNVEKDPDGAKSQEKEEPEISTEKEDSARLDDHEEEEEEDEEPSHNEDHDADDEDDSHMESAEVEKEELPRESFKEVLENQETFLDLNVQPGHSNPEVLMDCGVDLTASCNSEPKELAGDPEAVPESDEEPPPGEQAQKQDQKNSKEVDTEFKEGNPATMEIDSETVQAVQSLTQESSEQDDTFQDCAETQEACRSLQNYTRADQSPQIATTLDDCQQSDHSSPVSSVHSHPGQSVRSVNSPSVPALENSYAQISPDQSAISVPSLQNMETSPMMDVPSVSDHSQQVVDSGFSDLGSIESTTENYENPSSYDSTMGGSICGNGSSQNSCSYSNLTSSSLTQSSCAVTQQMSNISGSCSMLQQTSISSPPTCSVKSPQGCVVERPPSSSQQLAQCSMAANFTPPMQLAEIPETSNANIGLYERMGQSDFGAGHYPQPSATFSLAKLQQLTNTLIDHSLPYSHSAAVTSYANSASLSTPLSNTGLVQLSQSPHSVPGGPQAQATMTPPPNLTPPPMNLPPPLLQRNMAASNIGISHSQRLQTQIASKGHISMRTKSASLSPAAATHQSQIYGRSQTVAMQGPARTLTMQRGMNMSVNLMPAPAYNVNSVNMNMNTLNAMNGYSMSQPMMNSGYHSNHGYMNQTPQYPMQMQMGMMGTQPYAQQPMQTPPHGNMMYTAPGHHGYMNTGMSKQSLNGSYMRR
T4 sequence (O95251 whole entry): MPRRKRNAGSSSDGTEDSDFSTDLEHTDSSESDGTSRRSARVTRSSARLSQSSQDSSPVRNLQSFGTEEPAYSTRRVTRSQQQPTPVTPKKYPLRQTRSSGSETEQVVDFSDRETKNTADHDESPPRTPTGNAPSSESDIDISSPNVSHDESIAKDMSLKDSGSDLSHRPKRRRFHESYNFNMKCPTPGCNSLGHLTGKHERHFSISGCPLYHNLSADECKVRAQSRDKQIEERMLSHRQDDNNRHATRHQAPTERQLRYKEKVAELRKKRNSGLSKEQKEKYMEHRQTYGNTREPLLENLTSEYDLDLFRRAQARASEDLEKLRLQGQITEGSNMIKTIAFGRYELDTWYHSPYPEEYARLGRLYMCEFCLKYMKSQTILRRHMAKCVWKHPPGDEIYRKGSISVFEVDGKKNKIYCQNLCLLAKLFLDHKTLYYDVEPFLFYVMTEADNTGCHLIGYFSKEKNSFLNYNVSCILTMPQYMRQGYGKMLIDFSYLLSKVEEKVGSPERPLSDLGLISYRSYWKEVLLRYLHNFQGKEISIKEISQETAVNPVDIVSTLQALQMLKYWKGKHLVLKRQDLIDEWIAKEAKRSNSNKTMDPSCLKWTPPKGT

SMILES | Ki (KAT6A) [nM] | Ki (KAT6B) [nM] | Ki (KAT5) [nM] | KAT5/ KAT6A (KAT5) | KAT5/ KAT6B (KAT5) | Ki (KAT7) [nM] | KAT7/ KAT6A (KAT7) | KAT7/ KAT6B (KAT7) | AUC(0-inf) ([1]; iv, i.v. 1 mg/kg) [ng·h/mL] | clearance ([1]; iv, i.v. 1 mg/kg) [mL/min/kg] | half-life ([1]; iv, i.v. 1 mg/kg) [h] | Vd ([1]; iv, i.v. 1 mg/kg) [L/kg] | AUC(0-inf) ([1]; po, p.o. 2 mg/kg) [ng·h/mL] | bioavailability ([1]; po, p.o. 2 mg/kg) [%] | half-life ([1]; po, p.o. 2 mg/kg) [h]
COc1ccc2c(c1S(=O)(=O)Nc1noc3cc(Cn4cccn4)c(F)c(OC)c13)OCCCO2 [Compound 114, N-(6-((1H-Pyrazol-1-yl)methyl)-5-fluoro-4-methoxybenzo[d]isoxazol-3-yl)-7-methoxy-3,4-dihydro-2H-benzo[b][1,4]dioxepine-6-sulfonamide] | 0.38 | 2.49 | 1850 | 4880 | 745 | 174 | 458 | 70 | 39200 | 0.462 | 17.2 | 0.608 | 97900 | 144 | 13
COc1ccc2c(c1S(=O)(=O)Nc1noc3cc(Cn4cccn4)c(F)c(OC)c13)OCCCN2C [Compound 115, N-(6-((1H-Pyrazol-1-yl)methyl)-5-fluoro-4-methoxybenzo[d]isoxazol-3-yl)-8-methoxy-5-methyl-2,3,4,5-tetrahydrobenzo[b][1,4]oxazepine-9-sulfonamide] | 0.63 | 6.48 | 5040 | 7998 | 778 | 493 | 782 | 76 | 47500 | 0.363 | 14.3 | 0.408 | 109000 | 105 | 15.9
COc1ccc2c(c1S(=O)(=O)Nc1noc3cc(Cn4cccn4)c(F)c(OC)c13)OCCN2C [Compound 109, N-(6-((1H-Pyrazol-1-yl)methyl)-5-fluoro-4-methoxybenzo[d]isoxazol-3-yl)-7-methoxy-4-methyl-3,4-dihydro-2H-benzo[b][1,4]oxazine-8-sulfonamide] | 0.47 | 0.9 | 286 | 609 | 318 | 54.7 | 116 | 61 | 90700 | 0.185 | 8.57 | 0.119 | 187000 | 96 | 9.73
